Each structure is given as a SMILES string.

The term IC50 denotes the concentration that gives 50% inhibition.

The target in test [1] is T1, hP2X3 (human Purinergic P2X receptors subtype 3), clone B (Homo sapiens, UniProt P56373).
T1 sequence (P56373 1-397): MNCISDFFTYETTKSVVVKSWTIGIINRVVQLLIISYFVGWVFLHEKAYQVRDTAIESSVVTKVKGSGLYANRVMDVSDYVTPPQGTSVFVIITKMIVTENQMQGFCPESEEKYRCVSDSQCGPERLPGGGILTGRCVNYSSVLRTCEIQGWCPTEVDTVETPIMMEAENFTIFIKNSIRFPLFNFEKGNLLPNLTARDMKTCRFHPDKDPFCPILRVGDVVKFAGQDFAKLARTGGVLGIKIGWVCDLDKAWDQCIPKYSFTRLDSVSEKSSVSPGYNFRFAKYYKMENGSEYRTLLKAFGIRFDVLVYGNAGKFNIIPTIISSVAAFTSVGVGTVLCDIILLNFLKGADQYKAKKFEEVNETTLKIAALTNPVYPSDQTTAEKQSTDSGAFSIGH
The test can be described thus: hP2X3 FLIPR calcium (Fluo-4) antagonist assay, clone B. The settings on record: Human P2X3 FLIPR Clone B IC50 (nM), RLE cells expressing hP2X3 clone B (NM_002559); agonist 500 nM α,β-methylene-ATP.

Test [2] deals with T2, rat P2X2/3 (rat P2X3 co-expressed with rat P2X2) (Rattus norvegicus, UniProt P49653+P49654).
T2 sequence (P49654 1-397): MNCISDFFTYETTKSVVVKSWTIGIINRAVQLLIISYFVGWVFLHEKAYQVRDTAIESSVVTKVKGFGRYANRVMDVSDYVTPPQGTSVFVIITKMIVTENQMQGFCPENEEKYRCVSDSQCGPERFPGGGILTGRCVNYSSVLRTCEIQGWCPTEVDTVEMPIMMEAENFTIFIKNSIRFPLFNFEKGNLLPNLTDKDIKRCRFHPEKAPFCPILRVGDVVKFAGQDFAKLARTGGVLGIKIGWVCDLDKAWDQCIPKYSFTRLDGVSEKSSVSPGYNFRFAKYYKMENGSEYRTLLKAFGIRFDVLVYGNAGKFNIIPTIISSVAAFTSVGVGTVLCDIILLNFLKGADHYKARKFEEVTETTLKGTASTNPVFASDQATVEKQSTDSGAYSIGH
T2 sequence (P49653 1-472): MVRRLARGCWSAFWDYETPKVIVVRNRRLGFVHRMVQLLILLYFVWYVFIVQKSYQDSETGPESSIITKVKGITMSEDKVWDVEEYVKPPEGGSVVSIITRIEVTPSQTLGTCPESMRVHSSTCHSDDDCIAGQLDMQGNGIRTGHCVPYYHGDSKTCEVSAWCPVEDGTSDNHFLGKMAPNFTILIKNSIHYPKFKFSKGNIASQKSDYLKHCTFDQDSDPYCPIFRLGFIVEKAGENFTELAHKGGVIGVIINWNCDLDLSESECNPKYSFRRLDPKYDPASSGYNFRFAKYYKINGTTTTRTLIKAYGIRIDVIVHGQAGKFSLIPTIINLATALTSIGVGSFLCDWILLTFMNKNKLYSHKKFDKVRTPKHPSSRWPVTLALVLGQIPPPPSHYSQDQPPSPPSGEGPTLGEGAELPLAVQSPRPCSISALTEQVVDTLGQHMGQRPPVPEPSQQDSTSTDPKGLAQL
Description: rat P2X2/3 FLIPR calcium (Fluo-4) antagonist assay. The settings on record: Rat P2X2/3 FLIPR Mean IC50 (nM), HEK-TREX cells, tetracycline-induced rat P2X3 with constitutive rat P2X2; agonist 500 nM α,β-methylene-ATP.
Description: The assay used a calcium indicator dye (Fluo-4) that emits fluorescence, the intensity of which is related to the concentration of calcium that entered the cell when P2X3 was activated and the channel opened. Activation of hP2X3 or rat P2X3 and rat P2X2/3 (from the coexpression of rat P2X3 and rat P2×2) is elicited the by P2X3 agonist α,β methylene-ATP (Sigma M6517), and the resulting fluorescence is measured with a FLIPR II™ instrument (Molecular Devices). Compounds are tested for their ability to inhibit the agonist-induced fluorescent signal.
For the rat P2X2/3 HEK-TREX cells, induction of the rat P2X3 expression is used to generate the rat P2X2/3 channels in HEK-TREX cells and performed by addition of 1 μg/mL tetracycline (Invitrogen) 24 h prior to compounds testing to the HEK-TREX expressing the rat P2X2 constitutively. On the day of the experiment, the cells and test compounds are prepared as follows. […] After preparing the compounds, the medium is removed from the cell plates by inversion. A loading solution of 30 μL assay buffer containing 4 μM of the calcium indicator dye FLUO-4 AM (Molecular Probes F14202) is added to each well using a Multidrop (Labsystems). […] The incubation is terminated by washing the cells four times in assay buffer using a Skatron Embla (Molecular Devices), and 25 μL of assay buffer was left in each well. Cell plates are then transferred to the FLIPR. Experiments are initiated by measuring a baseline fluorescence reading for 10 seconds, followed by the addition of 12.5 μL of cpds and data sampling for a total 280 seconds. The experiments are terminated by addition of 12.5 μL of a reference agonist (500 nM α,β-methylene-ATP) or buffer, producing a final assay volume of 50 μL followed by data sampling for an additional 280 seconds.
In P2X3 antagonist experiments (human and rat assays) data are analysed as normalised maximal peak fluorescence monitored following agonist addition and calculated as percent of relative fluorescent counts from control agonist. The dose-response antagonist inhibition curves are analyzed in a 4-parameter sigmoidal fit using a non-linear curve-fitting program (XLfit version 5.0.6, ID Business Solutions Limited, Guildford, UK).

For `CC(=O)N1CCN(c2nc(NC(C)(C)Cc3ccc(F)cc3)c3c(n2)C(=O)N(C(C)C)C3)CC1C` (stereo not shown) [Example 138, 2-(4-Acetyl-3-methyl-piperazin-1-yl)-4-[2-(4-fluoro-phenyl)-1,1-dimethyl-ethylamino]-6-isopropyl-5,6-dihydro-pyrrolo[3,4-d]pyrimidin-7-one], the IC50 is 750 nM in test [1] and 16200 nM in test [2].

Consider `CC(C)N1Cc2c(NC(C)(C)Cc3ccc(F)cc3)nc(N3CCN4C(=O)OC[C@H]4C3)nc2C1=O` [Example 140, (R)-7-{4-[2-(4-Fluoro-phenyl)-1,1-dimethyl-ethylamino]-6-isopropyl-7-oxo-6,7-dihydro-5H-pyrrolo[3,4-d]pyrimidin-2-yl}-hexahydro-oxazolo[3,4-a]pyrazin-3-one], for which the IC50 came to 1100 nM in test [1] and 8470 nM in test [2].

Turning to `CC(=O)N1CCN(c2nc(NCc3cnc4ccccc4c3)c3c(n2)C(=O)N(C(C)C)C3)CC1C` (stereo not shown) [Example 142, 2-(4-Acetyl-3-methyl-piperazin-1-yl)-6-isopropyl-4-[(quinolin-3-ylmethyl)amino]-5,6-dihydro-pyrrolo[3,4-d]pyrimidin-7-one], the IC50 in test [1] was determined as 57 nM; in test [2], 7550 nM.

For `CC(=O)N1CCN(c2nc(NCc3cc(-c4ccccc4)on3)c3c(n2)C(=O)N(C(C)C)C3)CC1` [Example 144, 4-(4-acetylpiperazin-1-yl)-2-[(5-phenyl-1,2-oxazol-3-yl)methylamino]-8-propan-2-yl-3,5,8-triazabicyclo[4.3.0]nona-1,3,5-trien-7-one], the results for the concentration for half-maximal inhibition (IC50) in test [1] and in test [2] were 45 nM and 4800 nM, respectively.

On to `CC(=O)N1CCN(c2nc(NCc3cnn(-c4ccccc4)c3)c3c(n2)C(=O)N(C(C)C)C3)CC1` [Example 146, 4-(4-acetylpiperazin-1-yl)-2-[(1-phenylpyrazol-4-yl)methylamino]-8-propan-2-yl-3,5,8-triazabicyclo[4.3.0]nona-1,3,5-trien-7-one], for which the half-inhibitory concentration (IC50) in test [1] stood at 67 nM; in test [2] it was 2440 nM.

Consider `CC(=O)N1CCN(c2nc(NCc3cc(-c4ccccc4)no3)c3c(n2)C(=O)N(C(C)C)C3)CC1` [Example 147, 4-(4-acetylpiperazin-1-yl)-2-[(3-phenyl-1,2-oxazol-5-yl)methylamino]-8-propan-2-yl-3,5,8-triazabicyclo[4.3.0]nona-1,3,5-trien-7-one], for which the IC50 in test [1] came to 41 nM; in test [2] it was 1230 nM.

Take `CC(=O)N1CCN(c2nc(NCc3nnc(-c4ccccc4)o3)c3c(n2)C(=O)N(C(C)C)C3)CC1` [Example 148, 4-(4-acetylpiperazin-1-yl)-2-[(5-phenyl-1,3,4-oxadiazol-2-yl)methylamino]-8-propan-2-yl-3,5,8-triazabicyclo[4.3.0]nona-1,3,5-trien-7-one]: the IC50 in test [1] came out at 160 nM; in test [2], 6750 nM.

For `CC(=O)N1CCN(c2nc(NC(C)c3cnn(-c4ccccc4F)c3)c3c(n2)C(=O)N(C(C)C)C3)CC1` (stereo not shown) [Example 149, 4-(4-acetylpiperazin-1-yl)-2-[1-[1-(2-fluorophenyl)pyrazol-4-yl]ethylamino]-8-propan-2-yl-3,5,8-triazabicyclo[4.3.0]nona-1,3,5-trien-7-one], the IC50 in test [1] was 260 nM; in test [2], 5070 nM.

Regarding `CC(=O)N1CCN(c2nc(NC(C)c3cnn(-c4ccccc4)c3)c3c(n2)C(=O)N(C(C)C)C3)CC1` (stereo not shown) [Example 150, 4-(4-acetylpiperazin-1-yl)-2-[1-(1-phenylpyrazol-4-yl)ethylamino]-8-propan-2-yl-3,5,8-triazabicyclo[4.3.0]nona-1,3,5-trien-7-one], the IC50 was 60 nM in test [1] and 237 nM in test [2].

`CCOc1ccc([C@@H](C)Nc2nc(N3CCN(C(C)=O)CC3)nc3c2CN(C(C)C)C3=O)cc1Cl` [Example 159, (R)-2-(4-acetylpiperazin-1-yl)-4-(1-(3-chloro-4-ethoxyphenyl)ethylamino)-6-isopropyl-5H-pyrrolo[3,4-d]pyrimidin-7(6H)-one]: the IC50 in test [1] worked out at 37 nM; in test [2] it was 547 nM.

On to `CC(=O)N1CCN(c2nc(NC(C)(C)Cc3ccc(C)cc3)c3c(n2)C(=O)N(C(C)C)C3)CC1` [Example 164, 2-(4-acetylpiperazin-1-yl)-6-isopropyl-4-(2-methyl-1-p-tolylpropan-2-ylamino)-5H-pyrrolo[3,4-d]pyrimidin-7(6H)-one], for which the IC50 was determined as 56 nM in test [1] and 2910 nM in test [2].

Take `CC(=O)N1CCN(c2nc(N[C@H](C)c3ccc(I)cc3)c3c(n2)C(=O)N(C(C)C)C3)CC1` [Example 165, (R)-2-(4-acetylpiperazin-1-yl)-4-(1-(4-iodophenyl)ethylamino)-6-isopropyl-5H-pyrrolo[3,4-d]pyrimidin-7(6H)-one]: the IC50 in test [1] worked out at 43 nM; in test [2], 11100 nM.

Turning to `CC(=O)N1CCN(c2nc(N[C@H](C)c3ccc4c(c3)CCCC4)c3c(n2)C(=O)N(C(C)C)C3)CC1` [Example 166, (R)-2-(4-acetylpiperazin-1-yl)-6-isopropyl-4-(1-(5,6,7,8-tetrahydronaphthalen-2-yl)ethylamino)-5H-pyrrolo[3,4-d]pyrimidin-7(6H)-one], the IC50 in test [1] stood at 47 nM; in test [2], 1900 nM.

In the case of `COc1ccc(CC(C)(C)Nc2nc(N3CCN(C(C)=O)CC3)nc3c2CN(C(C)C)C3=O)cc1` [Example 196, 2-(4-acetylpiperazin-1-yl)-6-isopropyl-4-(1-(4-methoxyphenyl)-2-methylpropan-2-ylamino)-5H-pyrrolo[3,4-d]pyrimidin-7(6H)-one], the 50% inhibitory concentration (IC50) is 90 nM in test [1] and 2180 nM in test [2].

Turning to `CC(=O)N(C)C1CCN(c2nc(NCc3cnc4ccccc4c3)c3c(n2)C(=O)N(C(C)C)C3)C1` (stereo not shown) [Example 208, N-(1-(6-isopropyl-7-oxo-4-(quinolin-3-ylmethylamino)-6,7-dihydro-5H-pyrrolo[3,4-d]pyrimidin-2-yl)pyrrolidin-3-yl)-N-methylacetamide], the IC50 in test [1] turned out to be 680 nM; in test [2], 17600 nM.

As for `COc1cc(C(F)(F)F)ccc1CNc1nc(N2CCN(C(C)=O)CC2)nc2c1CN(C(C)C)C2=O` [Example 225, 2-(4-acetylpiperazin-1-yl)-6-isopropyl-4-(2-methoxy-4-(trifluoromethyl)benzylamino)-5H-pyrrolo[3,4-d]pyrimidin-7(6H)-one], the IC50 in test [1] is 290 nM; in test [2], 60700 nM.

Turning to `CC(=O)N1CCN(c2nc(NCc3cncc4ccccc34)c3c(n2)C(=O)N(C(C)C)C3)CC1` [Example 229, 2-(4-acetylpiperazin-1-yl)-6-isopropyl-4-(isoquinolin-4-ylmethylamino)-5H-pyrrolo[3,4-d]pyrimidin-7(6H)-one], the figures for the IC50 in test [1] and in test [2] were 120 nM and 14600 nM, respectively.

With `CC(=O)N1CCN(c2nc(N[C@H](C)c3cccc(C(F)(F)F)c3)c3c(n2)C(=O)N(C(C)C)C3)CC1` [Example 230, (R)-2-(4-acetylpiperazin-1-yl)-6-isopropyl-4-(1-(3-(trifluoromethyl)phenyl)ethylamino)-5H-pyrrolo[3,4-d]pyrimidin-7(6H)-one], the concentration for half-maximal inhibition (IC50) is 87 nM in test [1] and 7380 nM in test [2].

With `CC(=O)N1CCN(c2nc(N[C@H](C)c3cnc4ccccc4c3)c3c(n2)C(=O)N(C(C)C)C3)CC1` [Example 233, (R)-2-(4-acetylpiperazin-1-yl)-6-isopropyl-4-(1-(quinolin-3-yl)ethylamino)-5H-pyrrolo[3,4-d]pyrimidin-7(6H)-one], the IC50 came to 21 nM in test [1] and 74.4 nM in test [2].

Turning to `CC(=O)N1CCN(c2nc(NCc3ccc4ncccc4c3)c3c(n2)C(=O)N(C(C)C)C3)CC1` [Example 235, 2-(4-acetylpiperazin-1-yl)-6-isopropyl-4-(quinolin-6-ylmethylamino)-5H-pyrrolo[3,4-d]pyrimidin-7(6H)-one], the figures for the IC50 in test [1] and in test [2] were 83 nM and 13800 nM, respectively.

The values are drawn from patent US20090099195A1 (ASTRAZENECA AB, priority 2007, published 2009).
